In patent US11034719B2, “7-dehydrocholesterol derivatives and methods using same” (University of Rochester, priority 2014, dated 2021):

Key:
HUVEC cells = experiment: wound healing (scratch) assay with HUVEC cells; format: cell-based; conditions: 500 nMoles, 24 hours
Protocol: A 24-well plate was coated with 100 µL of sterile 1% gelatin solution per well. After gelatin coating was hardened, about 100,000 HUVEC cells were seeded per well and allowed to grow to 100% confluence in EBM-2 media. A […] tip was then used to create a vertical scratch wound down the center of each well, and cells were washed once with fresh EBM-2 media. Cell monolayers were then imaged at a 0 h time point using light microscopy on an inverted microscope under sterile conditions. Wound areas were imaged again using light microscopy, and areas were demarcated on representative images.
Floating cells were removed and media was replaced with HUVEC cell media supplemented with vehicle or Compound (3) (500 nMoles) and incubated for 24 hours. The cells were imaged using a pre-cooled inverted NICON microscope (40×).

A2058 cells xenograft = experiment: melanoma (A2058) xenograft in nude mice; format: in vivo; conditions: 10 mg/kg bwt i.p., 5× week, 15 days
Protocol: (§1) Animal experiments were carried out in the animal facilities of Rhode Island Hospital (RIH), Rhode Island, USA with strict adherence to the guidelines of the Animal Welfare Committee of Rhode Island Hospital (RIH) and Women and Infants Hospital of Rhode Island (Laboratory Animal Protection Approval: A3922-01). Four to six week-old immunodeficient nude mice (NU/ NU; strain code 088/homozygous) (Charles River Laboratories, Wilmington, Mass.) were maintained at a temperature of ˜22° C. and a relative humidity of ˜55%, with a 12 h light/dark cycle. A2058 cells were cultured to 80% confluence, washed in PBS twice, harvested by trypsination, pooled in complete medium, washed in PBS twice, and 1×10^6 cells/inoculate were suspended in 0.1 ml of matrigel and inoculated subcutaneously in the flank of mice. Mice with developing tumors after two weeks were randomly assigned to experimental groups. Mice were treated intraperitoneally every day with either vehicle control (control group; 7 animals) or MeTC7 (10 mg/kg bwt, 5× week) for 15 days. Mice were weighed and tumor size were measured using a digital caliper every 5th days. The percent of animals with tumor size less than 15 mm was calculated by Kaplan-Meier Analysis.

[1] = system: panel of cancer cell lines; experiment: ascorbic acid pretreatment, MTS viability in a panel of cancer cell lines; format: cell-based; conditions: ascorbic acid pretreatment 3 hours
Protocol: Cell lines derived from ovarian cancer, endometrial cancer, breast cancer, prostate cancer and neuroblastoma (5,000 cells/well) were seeded in complete DMEM (supplemented with 10% fetal bovine serum and 1% antibiotic) and allowed to adhere over night. Cells were pretreated with […] of acrorbic acid in 50 μL DMEM media for 3 hours. To the existing media was added DMEM media containing varying concentrations of 2× concentration of Compound (3). DMSO was used as control. At suitable intervals (varying from 1 minute to 4 days), the media was replaced again with complete RPMI (supplemented with 10% fetal bovine serum and 1% antibiotic) containing MTS dye (Invitrogen Inc) and incubated for period (varying from 10 min to 1 day). The absorbance of the media was read at varying wavelengths, advantageously at 492 nm, in an ELISA reader.

VDR-LBD = target: T1, VDR-LBD (Homo sapiens, UniProt P11473)
T1 sequence (P11473 127-423 limits assumed): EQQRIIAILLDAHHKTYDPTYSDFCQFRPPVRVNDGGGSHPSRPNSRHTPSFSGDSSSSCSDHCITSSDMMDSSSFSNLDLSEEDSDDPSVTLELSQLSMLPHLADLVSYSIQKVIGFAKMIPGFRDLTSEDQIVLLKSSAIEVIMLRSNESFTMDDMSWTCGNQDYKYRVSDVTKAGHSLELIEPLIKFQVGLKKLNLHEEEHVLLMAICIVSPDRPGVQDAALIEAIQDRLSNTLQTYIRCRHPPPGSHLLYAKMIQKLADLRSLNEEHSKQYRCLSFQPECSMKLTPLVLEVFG
Description: VDR antagonists disrupt this interaction by a direct or allosteric mode of inhibition.

ECC-1 cells = experiment: MTS cell viability assay, ECC-1; format: cell-based; conditions: FIG. 3
Protocol: ECC-1 cells were seeded (10,000 cells/well) in complete RPMI (supplemented with 10% fetal bovine serum and 1% antibiotic) and allowed to adhere over night. Media was replaced with a fresh complete RPMI media containing varying concentrations of Compound (3). DMSO was used as control. At suitable intervals (varying from 1 minute to 4 days), the media was replaced again with complete RPMI (supplemented with 10% fetal bovine serum and 1% antibiotic) containing MTS dye (Invitrogen Inc) and incubated for period (varying from 10 min to 1 day). The absorbance of the media was read at varying wavelengths, advantageously at […] in an ELISA reader.
(§2) Viability of cell lines (ECC-1, AN3CA, RL-95-2, SKOV-3, PC-3, MCF-7, SMSKCNR and TCL-1) before and after MeTC7 treatment was determined by the CellTiter 96® AQueous One Solution Assay (Promega Corp, Madison, Wisc.) following the manufacturer's recommendations. This colorimetric assay is based on the ability of mitochondria to reduce a substrate [MTS, 3-(4,5-dimethylthiazol-2-yl)-5-(3-carboxymethoxy phenyl)-2-(4-sulfophenyl)-2H-tetrazolium] into a soluble formazan product quantified by measuring the absorbance at 490 nm. The resulting OD is directly proportional to the number of living cells. […] The samples were incubated for an additional 4 h before absorbance was measured at 490 nm in an ELISA plate reader (Thermo Labsystems, Waltham, Mass.). […]

[2] = system: rat aorta rings (microcapillary formation); experiment: ex vivo rat aorta ring assay; conditions: 24 hour treatment, FIG. 9
Protocol: Rat aorta were harvested from the freshly euthanized naïve rats, cleaned and cut into fine rings and placed on matrigel beds prepared 30 min earlier in a 6 well plate. […] The media was replaced with fresh supplemented media and allowed the incubation for next 48 hours, thus affording a strong network of the microcappilary network. […] The phase contrast images were recorded on a pre-cooled inverted NICON microscope.

[3] = system: SKOV-3 and OVCAR-8 ovarian cancer cells; experiment: apoptosis detection (TUNEL, cytochrome-C release) in ovarian cancer cells; format: cell-based
Protocol: SKOV -3 and OVCAR-8 ovarian cancer cells (10,000 per well) were seeded in a 8 well slide chamber in DMEM complete media and allowed to incubate overnight. Cells were treated with complete media containing either vehicle or MeTC7 (500 nM) and incubated for 12 hours in a humidified incubator maintained at standard conditions. DNA fragmentation was detected using the DeadEndTM Fluorometric TUNEL System assay (Promega, Madison, Wisc.) according to the manufacturer's recommendations. Fluorescence of apoptotic cells (green; labeling of DNA nicks by fluorescein-12-dUTP) and of chromatin (red; staining of chromatin with propidium iodide) was detected by fluorescence microscopy with an inverted microscope (Nikon Eclipse TE2000-E) and a 10× objective. Four randomly chosen microscopic fields were captured. For the detection of the cytochrome-C release as a marker of the apoptosis, the cells were fixed in 5% cold formalin solution and cells were stained with cytochrome-C primary antibody (Santa Cruz Biotechnology, USA) and corresponding fluroescence linked secondary antibody. The images were recorded using an inverted microscope. At least five field were arbitrarily scoped.

SKOV-3 cells [4] = experiment: inhibition of lipid synthesis in SKOV-3 cells (HPLC of extracted lipids); format: cell-based; conditions: 500 nM, serum free
Protocol: Approximately 3 million cells in serum free conditions were treated with Compound (3) (500 nM). Media was removed, and cells were washed with PBST, trypisinized and collected after centrifugation at 1,000 rpm. The cell pellet was washed with PBST and treated with methanolic HCl for 1 hour. The methanol was removed, and cells were suspended in water and extracted with chloroform. The collected chloroform layer was evaporated with a gentle nitrogen stream, and the residue was analyzed by HPLC.

[5] = system: various cancer cell lines; experiment: viability of a panel of cancer cell lines (CellTiter 96 MTS); format: cell-based; conditions: FIGS. 11A-11C
Protocol: Viability of cell lines (ECC-1, AN3CA, RL-95-2, SKOV-3, PC-3, MCF-7, SMSKCNR and TCL-1) before and after MeTC7 treatment was determined by the CellTiter 96® AQueous One Solution Assay (Promega Corp, Madison, Wisc.) following the manufacturer's recommendations. This colorimetric assay is based on the ability of mitochondria to reduce a substrate [MTS, 3-(4,5-dimethylthiazol-2-yl)-5-(3-carboxymethoxy phenyl)-2-(4-sulfophenyl)-2H-tetrazolium] into a soluble formazan product quantified by measuring the absorbance at 490 nm. The resulting OD is directly proportional to the number of living cells. Briefly, cells (5×10^3/well) were plated into 96 well flat bottom plates (Corning, Inc., Coming, N.Y.) before treatment with various drugs or vehicle (DMSO) as indicated. Following incubation at 37° C. in a cell culture incubator for 20 h MTS reagent was added at a 1:10 dilution to the medium. The samples were incubated for an additional 4 h before absorbance was measured at 490 nm in an ELISA plate reader (Thermo Labsystems, Waltham, Mass.). Experiments were performed in triplicates; data are expressed as the mean of the triplicate determinations (X±SD) of a representative experiment in % of absorbance by samples with untreated cells [=100%]. Similarly, the cell viability of HEPG2 and HEK293 cells was determined except that the drug concentrations were used in the logarithmic values.

DAOY cells xenograft = experiment: medulloblastoma (DAOY) xenograft in nude mice; format: in vivo; conditions: 10 mg/kg bwt i.p., 5× week, 15 days
Protocol: as §1, with “mice (NU/NU;” for “mice (NU/ NU;”, “cycle. DAOY” for “cycle. A2058”, “group; 6” for “group; 7”, “MeTC7 (n=5, 10” for “MeTC7 (10”, “days.” for “days. The percent of animals with tumor size less than 15 mm was calculated by Kaplan-Meier Analysis.”

SKOV-3 cells [6] = experiment: MTS cell viability assay, SKOV-3; format: cell-based; conditions: FIG. 1 / FIG. 2
Protocol: SKOV-3 cells were seeded (5,000 cells/well) in complete DMEM (supplemented with 10% fetal bovine serum and 1% antibiotic) and allowed to adhere overnight. Media was replaced with a fresh complete DMEM media containing varying concentrations of the drugs of interest. DMSO was used as control. At a suitable interval (varying from 1 minute to 4 days), the media was replaced again with complete RPMI (supplemented with 10% fetal bovine serum and 1% antibiotic) containing MTS dye (Invitrogen Inc.) and incubated for a period varying from 10 minutes to 1 day. The absorbance of the media was read at varying wavelengths, advantageously at […] in an ELISA reader.
as §2, with “nm.” for “nm. The resulting OD is directly proportional to the number of living cells.”

SKOV-3 tumor xenographs = experiment: SKOV-3 tumor xenograft in nude mice; format: in vivo
Protocol: The effects of exemplary compounds of the invention on the growth of SKOV-3 tumor xenographs in nude mice were investigated. Substantively, four- to six week-old immunodeficient nude mice (NU/NU; strain code 088/homozygous) (Charles River Laboratories, Wilmington, Mass.) were maintained at a temperature of 22±1° C. and a relative humidity of 55±5%, with a 12 h light/dark cycle. SKOV-3 cells were cultured to 80% confluence, washed in PBS twice, harvested by hypsination, pooled in complete medium, washed in PBS twice, and 2×10^6 cells/inoculate were suspended in 0.1 ml of matrigel and inoculated subcutaneously in the flank of mice. Mice with developing tumors after two weeks were randomly assigned to experimental groups. Compound (3) was prepared as a stock solution of 1 mM in 100% EtOH and diluted 1:40 in PBS for administration. […] Mice were weighed and tumor size caculated using a caliper every 5 days.
Four to six week-old immunodeficient nude mice (NU/NU; strain code 088/homozygous) (Charles River Laboratories, Wilmington, Mass.) were maintained at a temperature of −22° C. and a relative humidity of ˜55%, with a 12 h light/dark cycle. […]

## CC(C)CCC[C@@H](C)[C@H]1CC[C@H]2C34C=CC5(C[C@@H](OC(=O)CBr)CC[C@]5(C)[C@H]3CC[C@]12C)n1c(=O)n(C)c(=O)n14 (stereo partly shown) [Compound (3)]
HUVEC cells
  recovery of the scratched area: failed to recover and repopulate the scratched area
A2058 cells xenograft
  growth of BRAF mutant melanoma xenografts: reduce the growth of BRAF mutant melanoma xenografts in animals
A2058 cells xenograft; Kaplan-Meier
  survival of animals with melanoma xenografts: extend survival in these animals
[1]
  cytotoxic effects after ascorbic acid pretreatment: reduced the cytotoxic effects
VDR-LBD; FIGS. 10A-10F
  VDR antagonism, selectivity: selective Vitamin D nuclear receptor (VDR) antagonists
VDR-LBD; in the absence of calcitriol
  VDR agonism (coactivator recruitment): not a VDR agonist
ECC-1 cells
  cell viability of ECC-1 cells: reduction in cell viability
[2]
  capillary formation and outgrowth: inhibited capillary formation and outgrowth
[3]; 500 nM, 12 hours
  cytochrome-C release: abundant cytochrome-C release in the cytosol
[3]; FIGS. 11D-11E
  apoptosis: cause apoptosis
SKOV-3 cells [4]
  lipids appearing at 10.06 minutes (HPLC): significantly reduced
[5]
  growth of cancer cell lines: block growth of various cancer cell lines
DAOY cells xenograft
  growth of medulloblastoma xenografts: reduce the growth of medulloblastoma xenografts in animals
SKOV-3 cells [6]
  cell viability of SKOV-3 cells: reduction in cell viability
SKOV-3 tumor xenographs; 10 mg/kg bwt i.p. every other day, 40 days, FIG. 7
  tumor burden: reduces the tumor burden
SKOV-3 tumor xenographs; 10 mg/kg bwt i.p., 5× week, 31 days, FIG. 11F
  growth of ovarian cancer xenografts: reduce the growth of ovarian cancer xenografts in animals
